Measurements reported in the NIST ThermoML archive (doi:10.1021/je400205g).
Numbers after ± are expanded uncertainties.

Details: Transpiration method

Row | SMILES | vapor or sublimation pressure (309.15 K, Liquid) | vapor or sublimation pressure (263.15 K, Liquid) | vapor or sublimation pressure (278.15 K, Liquid) | vapor or sublimation pressure (293.15 K, Liquid) | vapor or sublimation pressure (308.15 K, Liquid) | further results
1 | C=CC(F)(F)C(F)(F)C(F)(F)C(F)(F)C(F)(F)C(F)(F)C(F)(F)C(F)(F)F | 0.978 ± 0.039 kPa | – | – | – | – | vapor or sublimation pressure (254.15 K, Liquid): 0.01269 ± 0.00078 kPa; vapor or sublimation pressure (272.45 K, Liquid): 0.06823 ± 0.003 kPa; vapor or sublimation pressure (290.75 K, Liquid): 0.2843 ± 0.012 kPa
2 | O=C(O)C(F)(F)OC(F)(F)C(F)(F)OC(F)(F)F | – | 0.00451 ± 0.0011 kPa | 0.02238 ± 0.0014 kPa | 0.09288 ± 0.0041 kPa | 0.3168 ± 0.013 kPa | –
3 | O=C(O)C(F)(F)C(F)(F)C(F)(F)C(F)(F)C(F)(F)F [2,2,3,3,4,4,5,5,6,6,6-undecafluorohexanoic acid] | – | – | – | 0.044 ± 0.0022 kPa | 0.1656 ± 0.0068 kPa | vapor or sublimation pressure (263.15 K, Crystal): 0.00126 ± 0.001 kPa; vapor or sublimation pressure (270.15 K, Crystal): 0.00294 ± 0.001 kPa; vapor or sublimation pressure (278.15 K, Crystal): 0.00791 ± 0.0011 kPa; vapor or sublimation pressure (283.15 K, Crystal): 0.0134 ± 0.0012 kPa; vapor or sublimation pressure (285.15 K, Crystal): 0.01726 ± 0.0014 kPa; vapor or sublimation pressure (290.15 K, Crystal): 0.03551 ± 0.0018 kPa; vapor or sublimation pressure (300.15 K, Liquid): 0.08434 ± 0.0037 kPa
4 | OCCCC(F)(F)C(F)(F)C(F)(F)C(F)(F)F [4,4,5,5,6,6,7,7,7-nonafluoro-1-heptanol] | 0.217 ± 0.0086 kPa | – | – | 0.05717 ± 0.0027 kPa | – | vapor or sublimation pressure (255.65 K, Liquid): 0.00087 ± 8e-05 kPa; vapor or sublimation pressure (273.15 K, Liquid): 0.00765 ± 0.00033 kPa; vapor or sublimation pressure (282.45 K, Liquid): 0.02121 ± 0.00096 kPa
5 | CCOC(=O)C(F)(F)C(F)(F)C(F)(F)C(F)(F)C(F)(F)C(F)(F)C(F)(F)F [ethyl perfluorooctanoate] | – | 0.00516 ± 0.0011 kPa | 0.02313 ± 0.0014 kPa | 0.08988 ± 0.0038 kPa | 0.2649 ± 0.011 kPa | –
